{"source": "patent US20220152044A1", "about": "“TREATMENT OF INFLAMMATORY DISEASES OF THE CENTRAL NERVOUS SYSTEM” (PALMAYA PTY LTD, priority 2019, published 2022)", "key": {"anxiety [1]": {"tested_on": "anxiety", "assay": "Anxiety states monitored in twenty one patients after flumazenil", "type": "in vivo, human", "description": "Twenty one patients were monitored after treatment with flumazenil for the following states: (i) calmness, (ii) tenseness, (iii) relaxation, (iv) contentedness, (v) worry; and (vi) upset."}, "anxiety [2]": {"tested_on": "anxiety", "assay": "Anxiety during and after medication delivery", "type": "in vivo, human", "settings": "flumazenil infusions; for many patients continued for very long periods afterwards", "description": "These observations appeared to indicate a cure or recovery of the patients underlying disease rather than relief of symptoms only. These observations included patients treated in five other years as well as the group treated in 2016-2017."}, "methamphetamine use": {"tested_on": "methamphetamine use", "assay": "Survey of 109 patients, methamphetamine use after flumazenil infusion", "type": "in vivo, human", "description": "In a survey of 109 patients treated with flumazenil 4.9% were using methamphetamines daily and this fell to 0.9% following treatment with the flumazenil infusion. Abstinence from methamphetamine use increased from 67% before flumazenil treatment to 87% following treatment. This means that 33% of patients using methamphetamines fell to 13% following treatment with flumazenil."}, "premenstrual tension": {"tested_on": "premenstrual tension", "assay": "Premenstrual anxiety and symptoms in women treated with flumazenil", "type": "in vivo, human", "settings": "women complaining of premenstrual tension"}, "[3]": {"assay": "Blood / plasma flumazenil level in patients", "type": "in vivo, human", "protocol": "In a severe patient population, ondansetron may be given every 6-8 hours to assist in reducing the nausea and associated anxiety symptoms.\nThe patient was then treated with a subcutaneous implant delivering an estimated 60-80 micrograms per hour of flumazenil (based on water bath release rate testing). The implant was expected to last 8-10 weeks. This prevented the migraines for about 9-10weeks. In the week before the implant was inserted, the patient's blood flumazenil level was noted to be 0.5 ng/ml. The usual expected level for 160 microgram an hour infusions was in the order of 2-3 ng per ml and 1-1.5 ng for 80 microgram per hour infusions.\nThis finding that the migraines were stopped for a nine week period of time was amazing to the patient as they had suffered migraines for typically three weeks out of four for all of the years […]. At the end of week 8 on the first implant their blood flumazenil level was recorded as 0.5 ng per ml, which is considered a low level. Within a week another migraine started and the patient presented to the clinic for treatment.\nThis next implant was also delivering an estimated 60-80 micrograms of flumazenil per hour. Evidence of ovulation was confirmed by routine elevation of progesterone during the luteal phase of one of the two cycles during the time of this second implant. Again no migraines occurred during an 8-9 week time of the second implant. Blood levels of flumazenil at 1.2 and 1.3 ng/ml were recorded during the time of the second implant. After 9-10 weeks the patient, presented to a teaching hospital on the weekend with another migraine. They were treated with all the modern treatments for migraines without resolution of the migraine."}, "[4]": {"tested_on": "benzodiazepine detoxification", "assay": "Benzodiazepine detoxification with subcutaneous flumazenil infusion", "type": "in vivo, human", "protocol": "Benzodiazepines bring relief to stress and are involved in the release of dopamine. As with all other significant addictions, self-control is extremely damaged in patients with a severe benzodiazepine addiction. Our observations of the treatment of poly-drug dependency which includes benzodiazepine usually responds well to the use of flumazenil at 40-160 μg/hour together with 40-160 μg/hour or greater. […] The continual delivery of flumazenil at this rate allows most patients to reduce their benzodiazepine dosing over a few days to a week or two. The control of symptoms as these patients cease their benzodiazepine is controlled so that the majority of patients can cease benzodiazepine use successfully.\nWe have used our solution of flumazenil at 16 mg per 30 ml with a pH of 4±1 as a subcutaneous infusion at 40 to 160 μg per hour as our standard treatment to reduce the symptoms associated with benzodiazepine detoxification.\nAnticonvulsants, such as sodium valproate at 500 to 1000 mg per day were used for the first 10 days of flumazenil treatment to reduce the risk of epileptic seizures. […] The infusion may require several weeks of treatment and can be followed up with a flumazenil infusion delivering 40 to 160 μg per hour or more, as required to complete detoxification from the opioid."}, "[5]": {"tested_on": "smoking of nicotine cigarettes", "assay": "Smoking of nicotine cigarettes in a group of 80 patients treated with flumazenil", "type": "in vivo, human", "description": "We have found a reduction in smoking of nicotine cigarettes with the use of flumazenil. We were able to document that those smoking changed from 82.7% before treatment to 75% following treatment in a group of 80 patients being treated with flumazenil."}, "PTSD": {"tested_on": "PTSD", "assay": "PTSD patients treated with flumazenil and/or naltrexone", "type": "in vivo, human", "settings": "infusions and implants", "description": "Post Trauma Stress Disorder (PTSD), causes dysregulation of anxiety control that may damage the GABAA system and present as hypervigilance, sleep disturbance, anxiety, gastrointestinal (GIT) or bladder symptoms. We have been using flumazenil for more than 8 years to treat patients presenting complex. The infusions and implants give relief to the anxiety, sleep disturbance and the GIT symptoms as well as urinary symptoms in many well established PTSD patients.\nSleep remained normal following this. The profound recovery of sleep in patients with PTSD using flumazenil and naltrexone by continuous delivery has not previously been described."}, "HPA axis": {"tested_on": "HPA axis", "assay": "HPA axis in stressed animals", "type": "in vivo", "description": "For this reason the combination of sustained release naltrexone and sustained release flumazenil using injections, implants or infusions would be expected to limit neuro-inflammatory diseases and their symptoms."}}, "note": "Several values for one entry are separate records, joined by “and”; a condition that tells them apart may be missing. Equal entries are not always repeated. Entries after “also recorded” stand apart in the source; their conditions may differ."}
{"smiles": "CCOC(=O)c1ncn2c1CN(C)C(=O)c1cc(F)ccc1-2", "note": "[flumazenil]", "values": [{"measurement": "levels of relaxation following treatment", "setting": "anxiety [1]; twenty one patients", "result": "statically significant increase"}, {"measurement": "states of calmness, tenseness, relaxation, contentedness, worry and upset", "setting": "anxiety [1]; twenty one patients after treatment", "result": "improved"}, {"measurement": "anxiety during the time of medication delivery", "setting": "anxiety [2]", "result": "reduction of anxiety"}, {"measurement": "patients using methamphetamines following treatment", "setting": "methamphetamine use; 33% before treatment", "result": 13, "unit": "%"}, {"measurement": "patients using methamphetamines daily following treatment", "setting": "methamphetamine use; 109 patients, flumazenil infusion, 4.9% before", "result": 0.9, "unit": "%"}, {"measurement": "abstinence from methamphetamine use following treatment", "setting": "methamphetamine use; 109 patients, 67% before flumazenil treatment", "result": 87, "unit": "%"}, {"measurement": "premenstrual symptoms", "setting": "premenstrual tension", "result": "reduction in premenstrual symptoms"}, {"measurement": "usual expected blood flumazenil level", "setting": "[3]; 80 microgram per hour infusions", "result": "1 to 1.5", "unit": "ng"}, {"measurement": "usual expected blood flumazenil level", "setting": "[3]; 160 microgram an hour infusions", "result": "2-3 ng per ml"}, {"measurement": "concentration at 8 weeks", "setting": "[3]; human, blood, subcutaneous, migraine patient, end of week 8 on the first implant", "result": 0.5, "unit": "ng/mL"}, {"measurement": "blood levels of flumazenil", "setting": "[3]; migraine patient, during the time of the second implant", "result": "1.2 ng/mL and 1.3 ng/mL"}, {"measurement": "blood flumazenil level", "setting": "[3]; migraine patient, in the week before the implant was inserted", "result": 0.5, "unit": "ng/mL"}, {"measurement": "blocking of positive modulation of the GABAA receptor with benzodiazepines", "setting": "[4]; flumazenil at 40-160 μg/hour", "result": "not significantly blocked"}, {"measurement": "time to cease benzodiazepine use after commencement of the infusion", "setting": "[4]; subcutaneous infusion 40 to 160 μg per hour", "result": "within a few days to a week"}, {"measurement": "craving for benzodiazepines", "setting": "[4]; subcutaneous infusion 40 to 160 μg per hour, 16 mg per 30 ml, pH 4±1", "result": "decrease in their craving for benzodiazepines"}, {"measurement": "fall in those using (smoking) daily", "setting": "[5]; from 78.1% to 71.4%", "result": 4, "unit": "%"}, {"measurement": "those smoking following treatment", "setting": "[5]; group of 80 patients, 82.7% before treatment", "result": 75, "unit": "%"}, {"measurement": "those using (smoking) daily following treatment", "setting": "[5]; same population, 78.1% before treatment", "result": 71.4, "unit": "%"}, {"measurement": "PTSD symptoms (anxiety, sleep disturbance, GIT and urinary symptoms)", "setting": "PTSD", "result": "give relief; also recorded: significant improvement"}, {"measurement": "return of the HPA axis to normal", "setting": "HPA axis", "result": "help return the HPA axis"}]}
